Assay results reported in patent US20090143440A1, “Pyrazoles Useful in the Treatment of Inflammation” (BIOLIPOX AB, priority 2005, published 2009).

Biological target: T1, purified human 15-lipoxygenase (Homo sapiens, UniProt P16050)
T1 sequence (P16050 1-662): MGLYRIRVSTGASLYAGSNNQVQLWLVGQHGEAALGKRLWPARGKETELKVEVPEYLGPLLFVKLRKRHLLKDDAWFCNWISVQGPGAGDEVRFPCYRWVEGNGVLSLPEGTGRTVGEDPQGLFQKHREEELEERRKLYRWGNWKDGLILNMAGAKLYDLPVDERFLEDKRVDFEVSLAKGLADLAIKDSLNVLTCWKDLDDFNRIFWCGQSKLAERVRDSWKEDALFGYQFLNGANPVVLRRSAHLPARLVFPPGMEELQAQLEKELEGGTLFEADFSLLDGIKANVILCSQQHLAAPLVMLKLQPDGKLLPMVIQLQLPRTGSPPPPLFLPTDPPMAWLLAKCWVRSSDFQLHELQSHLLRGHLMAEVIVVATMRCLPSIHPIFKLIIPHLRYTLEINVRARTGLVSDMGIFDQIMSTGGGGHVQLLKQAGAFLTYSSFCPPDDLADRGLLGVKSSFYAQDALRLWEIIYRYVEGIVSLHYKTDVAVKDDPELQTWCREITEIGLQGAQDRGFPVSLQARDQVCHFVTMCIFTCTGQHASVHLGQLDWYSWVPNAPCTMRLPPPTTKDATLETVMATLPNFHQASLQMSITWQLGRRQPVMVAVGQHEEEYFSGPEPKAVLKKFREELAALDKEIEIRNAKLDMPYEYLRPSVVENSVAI
Experiment: 15-lipoxygenase inhibition assay (arachidonic acid oxidation, HPLC readout)
Type: biochemical
Conditions: arachidonic acid substrate, room temperature, PBS pH 7.4
Protocol: The assay employed takes advantage of the ability of lipoxygenases to oxidize polyunsaturated fatty acids, containing a 1,4-cis-pentadiene configuration, to their corresponding hydroperoxy or hydroxyl derivatives. In this particular assay, the lipoxygenase was a purified human 15-lipoxygenase and the fatty acid was arachidonic acid. The assay is performed at room temperature (20-22° C.) and the following are added to each well in a 96-well microtiter plate:
a) 35 μL phosphate buffered saline (PBS) (pH 7.4); b) inhibitor (i.e. compound) or vehicle (0.5 μl DMSO); c) 10 μL of a 10× concentrated solution of 15-lipoxygenase in PBS. […] The plate is then incubated for 10 minutes at room temperature; e) the enzymatic reaction is terminated by the addition of 100 μl methanol; and f) the amount of 15-hydroperoxy-eicosatetraenoic acid or 15-hydroxy-eicosatetraenoic acid is measured by reverse phase HPLC.

IC50 [nM]	Structure (SMILES)
122	COc1ccc(NC(=O)c2cc(Cl)[nH]n2)nc1 [Example 29, 5-Chloro-N-(5-methoxypyridin-2-yl)pyrazole-3-carboxamide]
346	Cc1ccnc(NC(=O)c2cc[nH]n2)c1 [Example 44]

Second part, the molecule before the results:

Structure (SMILES)	IC50 [nM]
O=C(Nc1ccc(C(F)(F)F)cn1)c1cc(Cl)[nH]n1 [Example 5, 5-Chloro-N-(5-(trifluoromethyl)pyridin-2-yl)pyrazole-3-carboxamide]	300
Cc1nc(NC(=O)c2cc(Cl)[nH]n2)ccc1Br [Example 6, N-(5-bromo-6-methylpyridin-2-yl)-5-chloropyrazole-3-carboxamide]	320
O=C(Nc1ccc(F)cn1)c1n[nH]c(C(F)(F)F)c1Cl [Example 11, 4-Chloro-N-(5-fluoropyridin-2-yl)-5-(trifluoromethyl)pyrazole-3-carboxamide]	310
O=C(Nc1ccc(F)cn1)c1cc(C(F)F)[nH]n1 [Example 13, 5-(Difluoromethyl)-N-(5-fluoropyridin-2-yl)pyrazole-3-carboxamide]	393
O=C(Nc1ccc([N+](=O)[O-])cn1)c1cc(Cl)[nH]n1 [Example 14, 5-Chloro-N-(5-nitropyridin-2-yl)pyrazole-3-carboxamide]	248
